This is an account of results in ChEMBL document CHEMBL1124969, “GABA agonists and uptake inhibitors. Synthesis, absolute stereochemistry, and enantioselectivity of (R)-(-)- and (S)-(+)-homo-beta-proline” (J Med Chem, 1990).

One test concerns the target GABA B receptor (Rattus norvegicus, UniProt O88871+Q9Z0U4). As to the kind of experiment: In vitro binding affinity against Gamma-aminobutyric acid type B receptor in rat brain synaptic membranes at pH 7.4. The class given is cell membranes.
Test [1] has as its target GABA-A receptor; anion channel. The test can be described thus: In vitro binding affinity against Gamma-aminobutyric acid A receptor in rat brain synaptic membranes at pH 7.1. Type of test: cell membranes.

Broadly, the IC50 is the concentration needed to halve the response being measured. Read a low IC50 as greater potency.

GABA B receptor, sequence (Q9Z0U4 whole entry): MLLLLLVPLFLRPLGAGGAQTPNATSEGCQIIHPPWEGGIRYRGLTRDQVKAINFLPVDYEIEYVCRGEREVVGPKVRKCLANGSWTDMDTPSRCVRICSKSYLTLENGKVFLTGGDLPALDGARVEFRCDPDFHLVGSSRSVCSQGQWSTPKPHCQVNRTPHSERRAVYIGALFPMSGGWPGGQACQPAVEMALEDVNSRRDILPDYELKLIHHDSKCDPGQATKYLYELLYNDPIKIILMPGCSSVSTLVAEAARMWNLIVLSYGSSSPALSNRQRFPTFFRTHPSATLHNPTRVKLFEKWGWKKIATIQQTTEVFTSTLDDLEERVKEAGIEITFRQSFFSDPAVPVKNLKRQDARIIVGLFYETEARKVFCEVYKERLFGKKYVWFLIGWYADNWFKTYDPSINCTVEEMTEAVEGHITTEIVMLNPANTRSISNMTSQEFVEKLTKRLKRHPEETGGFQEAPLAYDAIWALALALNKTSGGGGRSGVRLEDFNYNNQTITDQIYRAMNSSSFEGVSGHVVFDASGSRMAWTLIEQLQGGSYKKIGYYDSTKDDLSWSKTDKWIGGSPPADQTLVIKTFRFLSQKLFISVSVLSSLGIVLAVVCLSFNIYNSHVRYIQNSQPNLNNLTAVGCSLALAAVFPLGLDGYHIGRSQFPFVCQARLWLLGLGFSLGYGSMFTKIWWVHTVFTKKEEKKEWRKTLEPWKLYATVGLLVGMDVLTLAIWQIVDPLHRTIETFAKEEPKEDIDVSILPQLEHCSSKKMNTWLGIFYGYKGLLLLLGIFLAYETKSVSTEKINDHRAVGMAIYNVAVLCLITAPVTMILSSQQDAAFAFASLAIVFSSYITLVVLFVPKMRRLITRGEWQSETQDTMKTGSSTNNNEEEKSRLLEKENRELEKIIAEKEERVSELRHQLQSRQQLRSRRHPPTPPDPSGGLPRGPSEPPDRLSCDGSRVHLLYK
GABA B receptor, sequence (O88871 whole entry): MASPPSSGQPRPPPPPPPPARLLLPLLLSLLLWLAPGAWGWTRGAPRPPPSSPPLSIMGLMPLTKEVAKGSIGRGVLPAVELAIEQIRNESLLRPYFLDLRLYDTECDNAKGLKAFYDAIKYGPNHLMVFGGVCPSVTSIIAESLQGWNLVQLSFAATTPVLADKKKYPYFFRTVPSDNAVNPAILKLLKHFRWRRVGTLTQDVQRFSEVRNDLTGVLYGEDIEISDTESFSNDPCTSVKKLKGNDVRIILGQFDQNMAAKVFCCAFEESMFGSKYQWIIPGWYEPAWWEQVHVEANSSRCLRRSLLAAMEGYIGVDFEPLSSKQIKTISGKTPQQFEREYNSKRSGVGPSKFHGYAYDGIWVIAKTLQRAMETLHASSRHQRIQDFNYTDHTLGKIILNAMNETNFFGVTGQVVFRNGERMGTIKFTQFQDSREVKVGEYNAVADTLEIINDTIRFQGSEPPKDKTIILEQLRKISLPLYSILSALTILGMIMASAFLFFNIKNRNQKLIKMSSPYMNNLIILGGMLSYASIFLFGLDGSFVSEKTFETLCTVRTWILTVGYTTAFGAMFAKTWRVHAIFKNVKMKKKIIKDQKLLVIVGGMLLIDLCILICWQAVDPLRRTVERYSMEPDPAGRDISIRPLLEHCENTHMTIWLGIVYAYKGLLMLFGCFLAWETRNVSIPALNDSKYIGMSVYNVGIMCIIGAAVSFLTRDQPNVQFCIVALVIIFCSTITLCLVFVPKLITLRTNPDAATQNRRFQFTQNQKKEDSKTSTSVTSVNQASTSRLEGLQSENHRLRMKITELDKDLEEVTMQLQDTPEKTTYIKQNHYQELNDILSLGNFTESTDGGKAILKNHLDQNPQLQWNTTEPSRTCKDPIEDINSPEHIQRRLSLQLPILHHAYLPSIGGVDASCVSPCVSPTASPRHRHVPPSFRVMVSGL

For the compound `O=C(O)C[C@H]1CCNC1`, the IC50 was above 100000 nM at GABA B receptor and 70 nM in test [1].
In the same order, the values of `O=C(O)C[C@@H]1CCNC1` are 7800 nM and 900 nM.
On the same counts, the results for `O=C(O)CC1CCNC1` (racemic) are 14100 nM and 200 nM.
